Data reported in patent US11000033B2, “Ketone or oxime compound, and herbicide” (NISSAN CHEMICAL CORPORATION, priority 2014, dated 2021).

What was measured:
Format in all cases: in vivo
[1] = system: Echinochloa crus-galli var. crus-galli; assay: Test Example 5: herbicidal effect by foliage application, plastic box (symbol H); conditions: 320 g/ha, 3 weeks after application
Outline: (§1)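 Leaf-applied emulsion, water-diluted to a preset herbicide dose, on two-week-old seedlings raised in a 25° C. to 30° C. greenhouse; injury rated at 3 weeks using earlier criteria.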

Lolium multiflorum Lam. [2] = assay: Test Example 5: herbicidal effect by foliage application, plastic box (symbol K); conditions: 320 g/ha, 3 weeks after application
Outline: as §1

Chenopodium album = assay: Test Example 4: herbicidal effect by soil treatment (symbol O); conditions: application herbicide amount 320 g/ha
Outline: (§2)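 Seeds were sown in sterilized diluvial soil, covered with about 1.5 cm of soil, and the soil surface was sprayed with a water-diluted emulsion of the compound at a predetermined rate. Plants grew in a greenhouse at 25° C. to 30° C.; effects were scored visually 3 weeks after application.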

corn = assay: Test Example 5: effect on crop by foliage application, plastic box (symbol c); conditions: 320 g/ha, 3 weeks after application
Outline: (§3)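 Foliage-application test plants come from spot sowing in sterilized diluvial soil under a soil layer of about 1.5 cm, grown at 25° C. to 30° C. in a greenhouse.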

Lolium multiflorum Lam. [3] = assay: Test Example 4: herbicidal effect by soil treatment (symbol K); conditions: application herbicide amount 320 g/ha
Outline: as §2

Abutilon theophrasti = assay: Test Example 5: herbicidal effect by foliage application, plastic box (symbol M); conditions: 320 g/ha, 3 weeks after application
Outline: as §1

Monochoria vaginalis = assay: Test Example 1: herbicidal activity, application before weed generation in submerged conditions (symbol C); conditions: application herbicide amount 320 g/ha
Outline: (§4)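 Pre-emergence, paddy conditions: emulsifiable formulation diluted in water, dosed onto floodwater (4 cm depth) on sowing day. Alluvial soil; weeds sown mixed; rice transplanted at 2.5-leaf stage. Greenhouse 25–30 °C, 3 wk. Score 0–5 (5 = ≥90% kill, 0 = ≤5%).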

Alopecurus myosuroides = assay: Test Example 5: herbicidal effect by foliage application, plastic box (symbol J); conditions: 320 g/ha, 3 weeks after application
Outline: as §1

[4] = system: directly sowed rice plant; assay: Test Example 3: effect on crop by foliage application, Wagner pot (symbol b); conditions: application herbicide amount 320 g/ha
Outline: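 Plants are raised from seed in flooded paddy conditions: water stands 0.1–0.5 cm over alluvial soil, and the pot is kept in a greenhouse at 25–30 °C. Species sown are barnyardgrass (E. crus-galli var. crus-galli), Leptochloa chinensis, Cyperus difformis and rice.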

Digitaria ciliaris = assay: Test Example 5: herbicidal effect by foliage application, plastic box (symbol F); conditions: 320 g/ha, 3 weeks after application
Outline: as §1

rice plant = assay: Test Example 5: effect on crop by foliage application, plastic box (symbol b); conditions: 320 g/ha, 3 weeks after application
Outline: as §3

soybean = assay: Test Example 4: effect on crop by soil treatment (symbol d); conditions: application herbicide amount 320 g/ha
Outline: (§5)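 Sterilized diluvial soil, spot sowing, ~1.5 cm soil cover; greenhouse 25–30° C.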

rice = assay: Test Example 4: effect on crop by soil treatment (symbol b); conditions: application herbicide amount 320 g/ha
Outline: as §5

transplanted rice plant = assay: Test Example 1: effect on crop, application before weed generation in submerged conditions (symbol a); conditions: application herbicide amount 320 g/ha
Outline: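 Rice at 2.5 leaf stage transplanted into submerged soil (4 cm depth) sown with three weed species; herbicide applied before weed emergence.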

[5] = system: Echinochloa oryzacola Vasing.; assay: Test Example 1: herbicidal activity, application before weed generation in submerged conditions (symbol A); conditions: application herbicide amount 320 g/ha
Outline: as §4

Amaranthus retroflexus = assay: Test Example 5: herbicidal effect by foliage application, plastic box (symbol N); conditions: 320 g/ha, 3 weeks after application
Outline: as §1

| SMILES | H: Echinochloa crus-galli var. crus-galli, herbicidal effect (criteria of Test Example 1) [1] | K: Lolium multiflorum Lam., herbicidal effect (criteria of Test Example 1) (Lolium multiflorum Lam. [2]) | Herbicidal effect grade, O: Chenopodium album (Chenopodium album) | c: corn, effect on crop (criteria of Test Example 1) (corn) | Herbicidal effect grade, K: Lolium multiflorum Lam. (Lolium multiflorum Lam. [3]) | M: Abutilon theophrasti, herbicidal effect (criteria of Test Example 1) (Abutilon theophrasti) | Herbicidal effect grade, C: Monochoria vaginalis (Monochoria vaginalis) | J: Alopecurus myosuroides, herbicidal effect (criteria of Test Example 1) (Alopecurus myosuroides) | effect on crop b (directly sowed rice plant), grade 0-5 [4] | F: Digitaria ciliaris, herbicidal effect (criteria of Test Example 1) (Digitaria ciliaris) | b: directly sowed rice plant, effect on crop (criteria of Test Example 1) (rice plant) | Effect on crop grade, d: soybean (soybean) | Effect on crop grade, b: directly sowed rice plant (rice) | Effect grade on crop, a: transplanted rice plant (transplanted rice plant) | Herbicidal effect grade, A: Echinochloa oryzacola Vasing. [5] | N: Amaranthus retroflexus, herbicidal effect (criteria of Test Example 1) (Amaranthus retroflexus) |
| --- | --- | --- | --- | --- | --- | --- | --- | --- | --- | --- | --- | --- | --- | --- | --- | --- |
| CC(=O)CC1CC(O)=C(c2c(C)cc(-c3ccccn3)cc2C)C1=O (centres unmarked) [7-012] | 5 (Herbicidal ratio of 90% or more (almost completely withered)) | 5 (Herbicidal ratio of 90% or more (almost completely withered)) | 0 (Herbicidal ratio of 5% or lower (almost no effect)) | 3 (Herbicidal ratio of 40% or higher and lower than 70%) | 2 (Herbicidal ratio of 20% or higher and lower than 40%) | 0 (Herbicidal ratio of 5% or lower (almost no effect)) | 0 (Herbicidal ratio of 5% or lower (almost no effect)) | 3 (Herbicidal ratio of 40% or higher and lower than 70%) | 5 (Herbicidal ratio of 90% or more (almost completely withered)) | 5 (Herbicidal ratio of 90% or more (almost completely withered)) | 5 (Herbicidal ratio of 90% or more (almost completely withered)) | 0 (Herbicidal ratio of 5% or lower (almost no effect)) | 5 (Herbicidal ratio of 90% or more (almost completely withered)) | 1 (Herbicidal ratio of 5% or higher and lower than 20%) | 3 (Herbicidal ratio of 40% or higher and lower than 70%) | 0 (Herbicidal ratio of 5% or lower (almost no effect)) |
| CC(=O)CC1CC(O)=C(c2c(C)cc(OCc3ccccc3)cc2C)C1=O (centres unmarked) [7-018] | 4 (Herbicidal ratio of 70% or higher and lower than 90%) | 2 (Herbicidal ratio of 20% or higher and lower than 40%) | 0 (Herbicidal ratio of 5% or lower (almost no effect)) | 1 (Herbicidal ratio of 5% or higher and lower than 20%) | 0 (Herbicidal ratio of 5% or lower (almost no effect)) | 0 (Herbicidal ratio of 5% or lower (almost no effect)) | 0 (Herbicidal ratio of 5% or lower (almost no effect)) | 0 (Herbicidal ratio of 5% or lower (almost no effect)) | 3 (Herbicidal ratio of 40% or higher and lower than 70%) | 5 (Herbicidal ratio of 90% or more (almost completely withered)) | 2 (Herbicidal ratio of 20% or higher and lower than 40%) | 0 (Herbicidal ratio of 5% or lower (almost no effect)) | 0 (Herbicidal ratio of 5% or lower (almost no effect)) | 2 (Herbicidal ratio of 20% or higher and lower than 40%) | 2 (Herbicidal ratio of 20% or higher and lower than 40%) | 0 (Herbicidal ratio of 5% or lower (almost no effect)) |
| CC(=O)CC1CC(O)=C(c2c(C)cc(Oc3ccc(C(F)(F)F)cn3)cc2C)C1=O (centres unmarked) [7-019] | 4 (Herbicidal ratio of 70% or higher and lower than 90%) | 3 (Herbicidal ratio of 40% or higher and lower than 70%) | 0 (Herbicidal ratio of 5% or lower (almost no effect)) | 2 (Herbicidal ratio of 20% or higher and lower than 40%) | 0 (Herbicidal ratio of 5% or lower (almost no effect)) | 0 (Herbicidal ratio of 5% or lower (almost no effect)) | 0 (Herbicidal ratio of 5% or lower (almost no effect)) | 2 (Herbicidal ratio of 20% or higher and lower than 40%) | 3 (Herbicidal ratio of 40% or higher and lower than 70%) | 3 (Herbicidal ratio of 40% or higher and lower than 70%) | 1 (Herbicidal ratio of 5% or higher and lower than 20%) | 0 (Herbicidal ratio of 5% or lower (almost no effect)) | 0 (Herbicidal ratio of 5% or lower (almost no effect)) | 0 (Herbicidal ratio of 5% or lower (almost no effect)) | 1 (Herbicidal ratio of 5% or higher and lower than 20%) | 0 (Herbicidal ratio of 5% or lower (almost no effect)) |
| COc1cc(C)c(C2=C(O)CC(CC(C)=O)C2=O)c(C)c1 (centres unmarked) [7-020] | 4 (Herbicidal ratio of 70% or higher and lower than 90%) | 4 (Herbicidal ratio of 70% or higher and lower than 90%) | 0 (Herbicidal ratio of 5% or lower (almost no effect)) | 0 (Herbicidal ratio of 5% or lower (almost no effect)) | 3 (Herbicidal ratio of 40% or higher and lower than 70%) | 0 (Herbicidal ratio of 5% or lower (almost no effect)) | 0 (Herbicidal ratio of 5% or lower (almost no effect)) | 4 (Herbicidal ratio of 70% or higher and lower than 90%) | 4 (Herbicidal ratio of 70% or higher and lower than 90%) | 5 (Herbicidal ratio of 90% or more (almost completely withered)) | 3 (Herbicidal ratio of 40% or higher and lower than 70%) | 0 (Herbicidal ratio of 5% or lower (almost no effect)) | 5 (Herbicidal ratio of 90% or more (almost completely withered)) | 2 (Herbicidal ratio of 20% or higher and lower than 40%) | 2 (Herbicidal ratio of 20% or higher and lower than 40%) | 0 (Herbicidal ratio of 5% or lower (almost no effect)) |
| CC(=O)CC1CC(O)=C(c2c(C)cc(-n3cccn3)cc2C)C1=O (centres unmarked) [7-024] | 5 (Herbicidal ratio of 90% or more (almost completely withered)) | 3 (Herbicidal ratio of 40% or higher and lower than 70%) | 0 (Herbicidal ratio of 5% or lower (almost no effect)) | 1 (Herbicidal ratio of 5% or higher and lower than 20%) | 0 (Herbicidal ratio of 5% or lower (almost no effect)) | 0 (Herbicidal ratio of 5% or lower (almost no effect)) | 2 (Herbicidal ratio of 20% or higher and lower than 40%) | 2 (Herbicidal ratio of 20% or higher and lower than 40%) | 3 (Herbicidal ratio of 40% or higher and lower than 70%) | 0 (Herbicidal ratio of 5% or lower (almost no effect)) | 3 (Herbicidal ratio of 40% or higher and lower than 70%) | 0 (Herbicidal ratio of 5% or lower (almost no effect)) | 5 (Herbicidal ratio of 90% or more (almost completely withered)) | 2 (Herbicidal ratio of 20% or higher and lower than 40%) | 2 (Herbicidal ratio of 20% or higher and lower than 40%) | 0 (Herbicidal ratio of 5% or lower (almost no effect)) |
